Test results from patent US20250332160A1, “COMPOSITION CONTAINING ARIPIPRAZOLE AS ACTIVE INGREDIENT FOR ENHANCING ANTICANCER EFFECT OF ERK INHIBITOR” (KOREA INSTITUTE OF RADIOLOGICAL & MEDICAL SCIENCES, priority 2022, published 2025).

How the values were obtained:
PUMA = assay: Expression of PUMA protein in COLO 205 cells, Western blot; type: cell-based; conditions: eight hours after treatment, Western blot (FIG. 1)
Description: (§1) To identify an effect of aripiprazole on the expression of NOXA and PUMA proteins in cancer cells, COLO 205 cells were treated with aripiprazole. Eight hours later, proteins were extracted from cells after washing with PBS, and a level of NOXA and PUMA expression was checked via Western blot.

NOXA = assay: Expression of NOXA protein in COLO 205 cells, Western blot; type: cell-based; conditions: eight hours after treatment, Western blot (FIG. 1)
Description: as §1

O=C1CCc2ccc(OCCCCN3CCN(c4cccc(Cl)c4Cl)CC3)cc2N1 [aripiprazole]
expression of PUMA protein (PUMA): increased | expression of NOXA protein (NOXA): increased
